{"source": "paper PMC5564531", "about": "“Evaluation of radiofluorinated carboximidamides as potential IDO-targeted PET tracers for cancer imaging” (Oncotarget, 2017)", "key": {"Human IDO": {"target": "T1, Human IDO (Homo sapiens, UniProt P14902)", "T1 construct": "purchased Enzo Life Sciences (enzolifesciences.com) ALX-201-333-C050", "T1 sequence (P14902 whole entry)": "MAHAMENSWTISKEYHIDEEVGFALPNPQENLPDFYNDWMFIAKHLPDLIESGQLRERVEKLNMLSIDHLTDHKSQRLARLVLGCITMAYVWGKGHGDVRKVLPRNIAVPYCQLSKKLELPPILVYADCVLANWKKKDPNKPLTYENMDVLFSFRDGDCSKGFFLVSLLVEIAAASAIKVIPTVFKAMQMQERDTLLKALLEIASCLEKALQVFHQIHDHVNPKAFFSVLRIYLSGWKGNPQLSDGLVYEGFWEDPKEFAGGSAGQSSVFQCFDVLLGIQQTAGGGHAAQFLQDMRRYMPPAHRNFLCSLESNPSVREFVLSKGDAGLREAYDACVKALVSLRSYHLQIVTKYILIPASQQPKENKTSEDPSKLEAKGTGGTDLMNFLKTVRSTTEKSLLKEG", "assay": "IDO enzyme inhibition assay (kynurenine formation, absorbance 492 nm)", "type": "biochemical", "conditions": "recombinant human IDO; mean of n ≥ 3, ± SD", "method": "(§1) The percent inhibition at individual concentrations was determined and the average values of duplicates were obtained. The data was processed using nonlinear regression to generate IC50 values (Prism Graphpad)."}, "[1]": {"target": "T2, IDO1 in IFN-γ stimulated HeLa cells (Homo sapiens, UniProt P14902)", "T2 construct": "native IDO1 in HeLa cells; endogenous in cells; host or cells: HeLa cells stimulated with human IFN-γ", "T2 sequence (P14902 whole entry)": "as above", "assay": "IDO HeLa cells assay (IFN-γ induced IDO activity, kynurenine in supernatant)", "type": "cell-based", "conditions": "IFN-γ 50 ng/mL, 48 h incubation, read-out: Inhibition of IFN-γ induced IDO activity in HeLa cells (IC50)", "method": "as §1"}, "[2]": {"assay": "Lipophilicity, shake-flask method (n-octanol/PBS pH 7.4)", "type": "physicochemical", "conditions": "n-octanol/buffer pH 7.4, n=3", "method": "[^18F]IDO49 (2-30 kBq in 30μL of water) was added to a two-layer system of n-octanol (500 μL) and 0.1 M phosphate buffered saline (PBS) pH 7.4 (500 μL) in an Eppendorf vial. The vessel was vortexed for 3min and then centrifuged at 10,000 rpm for 2 min. An aliquot of each layer (100 μL) was assessed for radioactivity in a wipe counter. The partition coefficient (logD7.4) was calculated as the decimal logarithm of the ratio between the counted radioactivity in the n-octanol layer and the counted radioactivity in the aqueous layer (count of n-octanol sample – count of background) / (count of PBS sample – count of background). CLogP (calculated LogP) values were determined using CHEMBIODRAW ULTRA 12.0 software (Cambridge soft. Perkin-Elmer, Waltham, MA, USA)."}, "[3]": {"assay": "In vitro stability in mouse serum by radio-TLC", "type": "in vitro ADME", "conditions": "37°C, 3 h", "method": "Two-hundred microliter samples were collected at 3 h and analyzed by radio-TLC."}, "[4]": {"test_system": "Hela, PANC02, HCT116, and 4T1 cells", "assay": "HeLa cell uptake of radioligands", "type": "cell-based", "method": "HeLa cells were seeded in a 24 well culture plate at a density of 2 × 10^4 per well in 400 μL culture media w/ FBS (n=3). After overnight incubation (16 h), human IFN-γ (25ng/well, 50 ng/mL final concentration) in 100 μL DMEM with FBS were added into cells. The cells were rinsed with phosphate-buffered saline (PBS), 500 μL of Earle's Minimum Essential Medium (EMEM) (ATCC 30-2003), and 10 % fetal bovine serum was added to the culture wells. […] At each given time point, the cell supernatants were discarded and cells were washed 3 times with PBS (0.5 mL)."}, "IDO1 [5]": {"test_system": "IDO1", "set-up": "method as in PMID 19507862", "conditions": "in both biochemical and cellular assays; cited from earlier work"}, "IDO1 [6]": {"test_system": "IDO1", "set-up": "method as in PMID 20197554, PMID 20124451", "conditions": "Phase I dose-escalation trial, generally well-tolerated doses; cited from earlier work"}, "[7]": {"conditions": "rapid clearance rate; species and reference not given; cited from earlier work"}, "Hela tumor xenografts": {"test_system": "Hela tumor xenografts", "assay": "MicroPET imaging of HeLa tumor xenografts with rHu IFN-γ treatment", "type": "in vivo, mouse", "conditions": "60 min postinjection, IFN-γ treated HeLa tumor bearing mice, p < 0.05", "method": "Female athymic C57BL/6 nude mice (4-6 weeks old) were ordered from Charles River Laboratories (Stone Ridge, NY, U.S.A.) and housed in a temperature and humidity controlled room. After 7 to 14 days of acclimatization, a total of 5 ×10^6 Hela cells were inoculated subcutaneously in 200 μL serum-free medium into the right flank of hind leg. Once tumors reached an appropriate size (3-4 mm in diameter) the mice were randomized into 5 groups (4/group). Then the mice in each group were randomized into two subgroups (rHu IFN- γ treatment or no rHu IFN- γ treatment). All the rHu IFN- γ treatment mice were injected i.p. of 1.5×10^5 U rHu IFN- γ /mouse/day. Group one mice were anesthetized by gas inhalation (2% vol/vol isoflurane in oxygen) 24 h later. Then the mice were euthanized and tumor tissues were dissected for further IDO1 western blotting and IHC. The same operation was repeated at 48h, 72h, 96h and 120h points.\nIn order to evaluate the in vivo imaging performance of [^18F]IDO49 to IDO1 tumors, microPET imaging was performed on nude mice bearing Hela tumor xenografts with and without rHu IFN- γ treatment treatment using the Inveon small-animal PET/CT scanner (Siemens). Anesthesia was induced with 4− 5% isoflurane and maintained with 1− 3% isofluorane delivered with a mixed air/oxygen through a closed nose cone throughout the PET imaging session. […]"}, "IDO1 in Hela cells": {"target": "IDO1 in Hela cells (Homo sapiens, UniProt P14902)", "sequence (P14902 whole entry)": "as above", "assay": "Competitive cell-binding assay of [18F]IDO49 on IFN-γ treated HeLa cells", "conditions": "inhibitors 1-10000 nM, 30 min incubation"}}}
{"compound": "ON=C(Nc1ccc(F)c(Cl)c1)c1nonc1NCCF", "note": "[IDO49, N-(3-chloro-4-fluorophenyl)-4-((2-fluoroethyl)amino)-N'-hydroxy-1,2,5-oxadiazole-3-carboximidamide]", "values": [{"measurement": "IC50", "setting": "Human IDO", "value": "95.5 ± 10.4", "unit": "nM"}, {"measurement": "IC50", "setting": "[1]", "value": 11.9, "unit": "nM"}]}
{"compound": "Nc1nonc1/C(=N/O)Nc1ccc([18F])c(Cl)c1", "note": "[[^18F]IDO5L]", "values": [{"measurement": "logD7.4", "setting": "[2]", "value": "2.13 ± 0.11"}, {"measurement": "radioactivity in the intact radioligand", "setting": "[3]", "value": "> 95", "unit": "%"}, {"measurement": "time of peak cellular uptake", "setting": "[4]; Hela, PANC02, HCT116 and 4T1 cells, assayed at 30, 60, 120 mins, n=3", "value": 60, "unit": "min"}]}
{"compound": "Cn1cc(C[C@H](N)C(=O)O)c2ccccc21", "note": "[1-L-MT, reference compound]", "values": [{"measurement": "effect on uptake of [18F]IDO5L by HeLa at 120 min", "setting": "[4]; 1000 μM 1-L-MT, n=4", "value": "strong inhibition"}]}
{"compound": "NS(=O)(=O)NCCNc1nonc1C(=NO)Nc1ccc(F)c(Br)c1", "note": "[INCB024360]", "values": [{"measurement": "IC50", "setting": "IDO1 [5]", "value": "[…]"}, {"measurement": "inhibition of IDO1 activity", "setting": "IDO1 [6]", "value": "greater than 90%"}, {"measurement": "t1/2 (clearance rate)", "setting": "[7]", "value": "< 30", "unit": "min"}]}
{"compound": "ON=C(Nc1ccc(F)c(Cl)c1)c1nonc1NCC[18F]", "note": "[[^18F]IDO49]", "values": [{"measurement": "logD", "setting": "[2]; n-octanol/PBS, read-out: logD7.4", "value": "1.37 ± 0.02"}, {"measurement": "radioactivity in the intact radioligand", "setting": "[3]", "value": "> 95", "unit": "%"}, {"measurement": "tumor to muscle (T/M) uptake ratio, peak", "setting": "Hela tumor xenografts", "value": "2.29 ± 0.05"}, {"measurement": "[18F]IDO49 uptake in Hela cells when co-incubated with NLG919 and INCB024360", "setting": "IDO1 in Hela cells", "value": "decreased in a dose-dependent manner"}]}
